From patent US10065943B2, “Pyrrolidine derivatives as angiotensin II type 2 antagonists” (NOVARTIS AG, priority 2015, dated 2018)

Molecular target: T1, human AT2 receptor (Homo sapiens, UniProt P50052)
T1 construct: membranes prepared in house
T1 sequence (P50052 1-363): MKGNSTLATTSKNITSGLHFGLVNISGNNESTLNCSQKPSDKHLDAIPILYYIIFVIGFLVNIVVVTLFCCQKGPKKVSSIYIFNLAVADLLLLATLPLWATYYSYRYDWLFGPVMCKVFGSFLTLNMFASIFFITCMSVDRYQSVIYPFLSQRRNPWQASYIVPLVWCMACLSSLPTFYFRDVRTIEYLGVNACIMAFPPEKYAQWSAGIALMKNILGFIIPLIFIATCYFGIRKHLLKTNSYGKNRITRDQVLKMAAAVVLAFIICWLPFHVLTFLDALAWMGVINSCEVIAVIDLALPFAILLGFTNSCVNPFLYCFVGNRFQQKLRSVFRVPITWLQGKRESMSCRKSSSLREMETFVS
Experiment: AT2 receptor binding ([125I]CGP 42112A displacement, CHO-K1 membranes)
Details: [125I]CGP 42112A 0.05 nM, membranes of CHO-K1 cells expressing human AT2 receptor; Ki from IC50 by Cheng-Prussoff equation; read-out: Ki
Text: Reagents were purchased from Sigma-Aldrich, unless otherwise specified. Dialyzed fetal bovine serum (FBS) was from Life Technologies (cat. no. 10073772). Valiscreen® human angiotensin AT2 receptor cell line (cat. no. ES-070-C), [^125I]CGP 42112A (cat. no. NEX324025UC) and MicroScint™ 40 (cat. no. 6013641) were purchased from PerkinElmer. CGP 42112A (cat. no. 2569) and PD 123,319 ditrifluoroacetate (cat. no. 1361) were from Tocris Biosciences.
• 1. Growth medium • EX-CELL® CHO DHFR^− medium • 10% FBS, dialysed • 1 mM sodium pyruvate • 2 mM L-glutamine • 2. Harvesting buffer • PBS • 2 mM EDTA • 3. Suspension buffer • 50 mM Tris-HCl, pH 7.4 • 10 mM EDTA • 4. Resuspension buffer • 50 mM Tris-HCl, pH 7.4 • 0.1 mM EDTA • 0.1% sucrose • 5. Binding assay buffer • 50 mM Tris-HCl, pH 7.4 • 5 mM MgCl2 • 1 mM EDTA • 0.1% gelatin • 6. Wash buffer • 50 mM Tris-HCl, pH 7.4 Procedure for Membrane Preparation • Valiscreen® CHO-K1 cells stably expressing the human AT2 receptor were cultured in growth medium. • Cells were seeded into T-175 flasks and grown to 70-80% confluence. • Medium was removed from confluent flasks and cells were washed with warm PBS. • Cells were harvested by incubating with harvesting buffer for 10 min at 37° C., and then transferred to a centrifuge tube on ice. • Cells were centrifuged at 200 g for 5 min at 4° C. • Cell pellets were homogenised in ice-cold suspension buffer. • Homogenates were centrifuged at 40,000 g for 15 min at 4° C. • Pellets were resuspended in ice-cold resuspension buffer and centrifuged at 40,000 g for 15 min at 4° C. • Final pellets were homogenised in ice-cold resuspension buffer. • Protein concentrations were determined by BCA assay method with BSA as standard. Compound Preparation
Compounds were prepared from 10 mM stock solutions in 100% DMSO. Dilutions were made using electronic multichannel pipettes.
• Compounds dilutions were prepared in 100% DMSO at 100× final assay concentration. • Compounds were diluted in 100% DMSO to the appropriate maximal concentration. • 30 μL compound was added to row A. • 21.6 μL of 100% DMSO was added to rows B-H. • Transfer 10 μL from row A into row B (half log dilution). • Transfer 10 μL from row B into row C (half log dilution). • Transfer 10 μL from row C into row D (half log dilution). • Transfer 10 μL from row D into row E (half log dilution). • Transfer 10 μL from row E into row F (half log dilution). • Transfer 10 μL from row F into row G (half log dilution). • Transfer 10 μL from row G into row H (half log dilution). Working Plate Preparation (96-Well Plate) • Compounds were diluted 10-fold in assay buffer. • 10 μL compound solution from dose plate was transferred to corresponding well of working plate. • 90 μL assay buffer was added to the wells of working plate. • Working solutions contained 10% DMSO in assay buffer (1% DMSO final assay concentration). Controls • Total binding (high control) was determined in the absence of unlabelled ligand. A solution of 10% DMSO in assay buffer was prepared. • Non-specific binding (low control) was determined in the presence of a vast excess (10 μM) of PD 123,319. 1 mM stock solution of PD 123,319 in water was diluted 10-fold with 10% DMSO in assay buffer. Assay Plate Preparation (96-Well Plate)
15 μL compound solution was transferred to duplicate wells of assay plate. 5 compounds were tested per plate. 15 μL control solutions were transferred to columns 1 and 12 of assay plate.

Compound | Ki
O=C(O)[C@@H]1C[C@H](N2Cc3ccccc3C2)CN1C(=O)C(c1ccccc1)c1ccccc1 [Compound 20, (2S,4S)-1-(2,2-Diphenylacetyl)-4-(isoindolin-2-yl)pyrrolidine-2-carboxylic acid] | 359 nM
O=C(O)[C@@H]1C[C@H](N2CCCOc3ccccc32)CN1C(=O)C(c1ccccc1)c1ccccc1 [Compound 7, (2S,4S)-4-(3,4-dihydrobenzo[b][1,4]oxazepin-5(2H)-yl)-1-(2,2-diphenylacetyl)pyrrolidine-2-carboxylic acid] | 2 nM
C[C@@]1(C(=O)O)C[C@H](N2CCCCc3ccccc32)CN1C(=O)C(c1ccccc1)c1ccccc1 [Compound 30, (2S,4S)-1-(2,2-Diphenylacetyl)-2-methyl-4-(2,3,4,5-tetrahydro-1H-benzo[b]azepin-1-yl)pyrrolidine-2-carboxylic acid] | 3.3 nM
C[C@@]1(C(=O)O)C[C@H](N2CCCCc3cc(F)c(F)cc32)CN1C(=O)C(c1ccccc1)c1ccccc1 [Compound 31, (2S,4S)-4-(7,8-Difluoro-2,3,4,5-tetrahydro-1H-benzo[b]azepin-1-yl)-1-(2,2-diphenylacetyl)-2-methylpyrrolidine-2-carboxylic acid] | 11.8 nM
Cc1ccc2c(c1)N([C@@H]1C[C@@H](C(=O)O)N(C(=O)C(c3ccccc3)c3ccccc3)C1)CCCC2 [Compound 23, (2S,4R)-1-(2,2-Diphenylacetyl)-4-(8-methyl-2,3,4,5-tetrahydro-1H-benzo[b]azepin-1-yl)pyrrolidine-2-carboxylic acid] | 15.9 nM
O=C(O)[C@@H]1C[C@H](N2CCCCc3sccc32)CN1C(=O)C(c1ccccc1)c1ccccc1 [Compound 11, (2S,4S)-1-(2,2-Diphenylacetyl)-4-(5,6,7,8-tetrahydro-4H-thieno[3,2-b]azepin-4-yl)pyrrolidine-2-carboxylic acid] | 4.9 nM
O=C(O)[C@@H]1C[C@H](N2CCCc3ccccc3C2)CN1C(=O)C(c1ccccc1)c1ccccc1 [Compound 18, (2S,4S)-1-(2,2-Diphenylacetyl)-4-(1,3,4,5-tetrahydro-2H-benzo[c]azepin-2-yl)pyrrolidine-2-carboxylic acid] | 79.7 nM

Further lines, results first:

Ki | Compound
178 nM | CN1CCN([C@H]2C[C@@H](C(=O)O)N(C(=O)C(c3ccccc3)c3ccccc3)C2)Cc2ccccc21 [Compound 17, (2S,4S)-1-(2,2-Diphenylacetyl)-4-(1-methyl-1,2,3,5-tetrahydro-4H-benzo[e][1,4]diazepin-4-yl)pyrrolidine-2-carboxylic acid]
99 nM | O=C(O)[C@@H]1C[C@H](N2CCOc3ccccc3C2)CN1C(=O)C(c1ccccc1)c1ccccc1 [Compound 19, (2S,4S)-4-(2,3-Dihydrobenzo[f][1,4]oxazepin-4(5H)-yl)-1-(2,2-diphenylacetyl)pyrrolidine-2-carboxylic acid]
8.8 nM | COc1ccc2c(c1)CCCCN2[C@H]1C[C@@H](C(=O)O)N(C(=O)C(c2ccccc2)c2ccccc2)C1 [Compound 4, (2S,4S)-1-(2,2-Diphenylacetyl)-4-(7-methoxy-2,3,4,5-tetrahydro-1H-benzo[b]azepin-1-yl)pyrrolidine-2-carboxylic acid]
5 nM | C[C@@]1(C(=O)NS(=O)(=O)C2CC2)C[C@@H](N2CCCOc3cc(F)c(F)cc32)CN1C(=O)C(c1ccccc1)c1ccccc1 [Compound 42a, (2S,4R)—N-(cyclopropylsulfonyl)-4-(7,8-difluoro-3,4-dihydrobenzo[b][1,4]oxazepin-5(2H)-yl)-1-(2,2-diphenylacetyl)-2-methylpyrrolidine-2-carboxamide]
33 nM | O=C(O)[C@@H]1C[C@@H](N2CCCCc3ccncc32)CN1C(=O)C(c1ccccc1)c1ccccc1 [Compound 28, (2S,4R)-1-(2,2-Diphenylacetyl)-4-(2,3,4,5-tetrahydro-1H-pyrido[3,4-b]azepin-1-yl)pyrrolidine-2-carboxylic acid]
